Source: the NIST ThermoML archive (doi:10.1016/j.fluid.2018.04.024)
± gives the expanded uncertainty stated by the source.

Details: Liquid, Vibrating tube method

SMILES: CCCCCCC(=O)OC [methyl heptanoate]
- mass density (293.15 K, 100 kPa): 880.16 ± 0.91 kg/m3
- mass density (293.15 K, 1000 kPa): 880.29 ± 0.91 kg/m3
- mass density (293.15 K, 3000 kPa): 881.98 ± 0.91 kg/m3
- mass density (293.15 K, 5000 kPa): 883.19 ± 0.91 kg/m3
- mass density (293.15 K, 10000 kPa): 886.99 ± 0.92 kg/m3
- mass density (293.15 K, 15000 kPa): 890.49 ± 0.93 kg/m3
- mass density (293.15 K, 20000 kPa): 893.86 ± 0.94 kg/m3
- mass density (293.15 K, 25000 kPa): 897.18 ± 0.95 kg/m3
- mass density (293.15 K, 30000 kPa): 900.36 ± 0.95 kg/m3
- mass density (293.15 K, 35000 kPa): 903.34 ± 0.96 kg/m3
- mass density (293.15 K, 40000 kPa): 906.22 ± 0.97 kg/m3
- mass density (293.15 K, 50000 kPa): 912.14 ± 0.98 kg/m3
- mass density (293.15 K, 60000 kPa): 917.16 ± 1 kg/m3
- mass density (303.15 K, 100 kPa): 870.66 ± 0.9 kg/m3
- mass density (303.15 K, 1000 kPa): 871.46 ± 0.9 kg/m3
- mass density (303.15 K, 3000 kPa): 873.07 ± 0.9 kg/m3
- mass density (303.15 K, 5000 kPa): 874.66 ± 0.91 kg/m3
- mass density (303.15 K, 10000 kPa): 878.5 ± 0.92 kg/m3
- mass density (303.15 K, 15000 kPa): 882.18 ± 0.92 kg/m3
- mass density (303.15 K, 20000 kPa): 885.64 ± 0.93 kg/m3
- mass density (303.15 K, 25000 kPa): 889.08 ± 0.94 kg/m3
- mass density (303.15 K, 30000 kPa): 892.3 ± 0.95 kg/m3
- mass density (303.15 K, 35000 kPa): 895.46 ± 0.96 kg/m3
- mass density (303.15 K, 40000 kPa): 898.49 ± 0.97 kg/m3
- mass density (303.15 K, 50000 kPa): 904.43 ± 0.98 kg/m3
- mass density (303.15 K, 60000 kPa): 909.95 ± 0.99 kg/m3
- mass density (313.15 K, 100 kPa): 861.82 ± 0.89 kg/m3
- mass density (313.15 K, 1000 kPa): 862.16 ± 0.89 kg/m3
- mass density (313.15 K, 3000 kPa): 863.9 ± 0.89 kg/m3
- mass density (313.15 K, 5000 kPa): 865.62 ± 0.9 kg/m3
- mass density (313.15 K, 10000 kPa): 869.71 ± 0.91 kg/m3
- mass density (313.15 K, 15000 kPa): 873.55 ± 0.92 kg/m3
- mass density (313.15 K, 20000 kPa): 877.29 ± 0.93 kg/m3
- mass density (313.15 K, 25000 kPa): 880.89 ± 0.94 kg/m3
- mass density (313.15 K, 30000 kPa): 884.32 ± 0.95 kg/m3
- mass density (313.15 K, 35000 kPa): 887.66 ± 0.95 kg/m3
- mass density (313.15 K, 40000 kPa): 890.73 ± 0.96 kg/m3
- mass density (313.15 K, 50000 kPa): 896.98 ± 0.98 kg/m3
- mass density (313.15 K, 60000 kPa): 902.59 ± 0.99 kg/m3
- mass density (323.15 K, 100 kPa): 852.25 ± 0.88 kg/m3
- mass density (323.15 K, 1000 kPa): 853.12 ± 0.88 kg/m3
- mass density (323.15 K, 3000 kPa): 854.89 ± 0.89 kg/m3
- mass density (323.15 K, 5000 kPa): 856.64 ± 0.89 kg/m3
- mass density (323.15 K, 10000 kPa): 860.97 ± 0.9 kg/m3
- mass density (323.15 K, 15000 kPa): 865.07 ± 0.91 kg/m3
- mass density (323.15 K, 20000 kPa): 869.08 ± 0.92 kg/m3
- mass density (323.15 K, 25000 kPa): 872.69 ± 0.93 kg/m3
- mass density (323.15 K, 30000 kPa): 876.31 ± 0.94 kg/m3
- mass density (323.15 K, 35000 kPa): 879.74 ± 0.95 kg/m3
- mass density (323.15 K, 40000 kPa): 883.15 ± 0.96 kg/m3
- mass density (323.15 K, 50000 kPa): 889.53 ± 0.98 kg/m3
- mass density (323.15 K, 60000 kPa): 895.63 ± 0.99 kg/m3
- mass density (333.15 K, 100 kPa): 843.03 ± 0.87 kg/m3
- mass density (333.15 K, 1000 kPa): 843.81 ± 0.87 kg/m3
- mass density (333.15 K, 3000 kPa): 845.84 ± 0.88 kg/m3
- mass density (333.15 K, 5000 kPa): 847.68 ± 0.88 kg/m3
- mass density (333.15 K, 10000 kPa): 852.16 ± 0.89 kg/m3
- mass density (333.15 K, 15000 kPa): 856.43 ± 0.9 kg/m3
- mass density (333.15 K, 20000 kPa): 860.63 ± 0.92 kg/m3
- mass density (333.15 K, 25000 kPa): 864.64 ± 0.93 kg/m3
- mass density (333.15 K, 30000 kPa): 868.31 ± 0.94 kg/m3
- mass density (333.15 K, 35000 kPa): 871.91 ± 0.95 kg/m3
- mass density (333.15 K, 40000 kPa): 875.61 ± 0.96 kg/m3
- mass density (333.15 K, 50000 kPa): 882.2 ± 0.98 kg/m3
- mass density (333.15 K, 60000 kPa): 888.39 ± 1 kg/m3
- mass density (343.15 K, 100 kPa): 833.48 ± 0.86 kg/m3
- mass density (343.15 K, 1000 kPa): 834.64 ± 0.86 kg/m3
- mass density (343.15 K, 3000 kPa): 836.7 ± 0.87 kg/m3
- mass density (343.15 K, 5000 kPa): 838.79 ± 0.87 kg/m3
- mass density (343.15 K, 10000 kPa): 843.47 ± 0.89 kg/m3
- mass density (343.15 K, 15000 kPa): 848.02 ± 0.9 kg/m3
- mass density (343.15 K, 20000 kPa): 852.59 ± 0.91 kg/m3
- mass density (343.15 K, 25000 kPa): 856.55 ± 0.92 kg/m3
- mass density (343.15 K, 30000 kPa): 860.57 ± 0.93 kg/m3
- mass density (343.15 K, 35000 kPa): 864.43 ± 0.94 kg/m3
- mass density (343.15 K, 40000 kPa): 867.96 ± 0.96 kg/m3
- mass density (343.15 K, 50000 kPa): 875 ± 0.98 kg/m3
- mass density (343.15 K, 60000 kPa): 881.19 ± 1 kg/m3
- mass density (353.15 K, 100 kPa): 824.35 ± 0.85 kg/m3
- mass density (353.15 K, 1000 kPa): 825.27 ± 0.86 kg/m3
- mass density (353.15 K, 3000 kPa): 827.61 ± 0.86 kg/m3
- mass density (353.15 K, 5000 kPa): 829.66 ± 0.87 kg/m3
- mass density (353.15 K, 10000 kPa): 834.76 ± 0.88 kg/m3
- mass density (353.15 K, 15000 kPa): 839.63 ± 0.89 kg/m3
- mass density (353.15 K, 20000 kPa): 844.11 ± 0.9 kg/m3
- mass density (353.15 K, 25000 kPa): 848.48 ± 0.92 kg/m3
- mass density (353.15 K, 30000 kPa): 852.65 ± 0.93 kg/m3
- mass density (353.15 K, 35000 kPa): 856.65 ± 0.94 kg/m3
- mass density (353.15 K, 40000 kPa): 860.37 ± 0.95 kg/m3
- mass density (353.15 K, 50000 kPa): 867.57 ± 0.98 kg/m3
- mass density (353.15 K, 60000 kPa): 874.32 ± 1 kg/m3
- mass density (363.15 K, 100 kPa): 815.19 ± 0.84 kg/m3
- mass density (363.15 K, 1000 kPa): 816.36 ± 0.85 kg/m3
- mass density (363.15 K, 3000 kPa): 818.75 ± 0.85 kg/m3
- mass density (363.15 K, 5000 kPa): 821 ± 0.86 kg/m3
- mass density (363.15 K, 10000 kPa): 826.14 ± 0.87 kg/m3
- mass density (363.15 K, 15000 kPa): 831.57 ± 0.89 kg/m3
- mass density (363.15 K, 20000 kPa): 836.11 ± 0.9 kg/m3
- mass density (363.15 K, 25000 kPa): 840.56 ± 0.91 kg/m3
- mass density (363.15 K, 30000 kPa): 845.01 ± 0.93 kg/m3
- mass density (363.15 K, 35000 kPa): 849.23 ± 0.94 kg/m3
- mass density (363.15 K, 40000 kPa): 853.33 ± 0.95 kg/m3
- mass density (363.15 K, 50000 kPa): 860.82 ± 0.98 kg/m3
- mass density (363.15 K, 60000 kPa): 867.91 ± 1 kg/m3
